What all share (type): cell-based, human
For series [1], the system named is telomeric transgenes (GFP, DsRed) in HeLa cells. Description: Telomeric gene silencing quantitative assay (GFP/DsRed reporters, cytofluorometry). To be noted: for transgene expression at telomeric positions: HeLa telomeric clones, agent in culture medium (TSA 1 μM 48 h, NaB 1 mM one week, 5azadC 3 μM 48 h, BrdU 50 μM one week). The method, then: The minimal CMV promoter and EGFP and DsRed coding sequences (Clontech) were PCR amplified and cloned in both orientations in pBS-SK2 containing telomeric repeats, kindly provided by J. Baur (2). Puromycin resistance gene expressed from the CAG promoter was inserted upstream of DsRed, in a telomere-distal position. Four Gal4 binding site were introduced between EGFP and DsRed expression cassettes at AscI and BamHI restriction sites, yielding pGE1min-Gal and pGE2 min-Gal. Control plasmids were generated by deletion of the telomeric repeats. Plasmids encoding the Gal DNA binding domain alone (pCD-Gal-DBD), or fused to the CTF1 Proline rich (pCMV-Gal-Pro) or to the VP16 (pCMV-Gal-VP16) transcriptional activation domains were as described previously (31). Plasmids encoding Gal-CTF1 fusion mutations were previously described by Alevizopoulos et al. (1995). Plasmids used to generate stable populations expressing Gal4 derivatives were obtained by cloning Gal-fusion genes or the BFP gene in an expression vector carrying the MAR 1-68 and the SV40 promoter (15).
HeLa cells (Clontech) were cultivated at 37° C. and 5% CO2 in DMEM-F12 with 10% fetal bovine serum (Gibco). Histone deacetylation or DNA methylation studies were performed by supplementing the cell culture medium with either 1 μM of Trichostatin A (TSA, Wako) for 48 h, 1 mM of Sodium butyrate (Sigma) for one week, 3 μM of 5-aza-2′-deoxycytidine (5azadC, Sigma) for 48 h, or 50 μM of Bromo-deoxyuridine (BrdU, Applichem) for one week. Transfections were performed using the Fugene 6 transfection reagent following instructions from the manufacturer (Roche). Stable clones were obtained by transfection of linearized plasmids pGEmin-Gal, pGE2 min-Gal or their respective controls. Cells were selected with 2 μg/mL of puromycin for three weeks, and all analyses were performed at least two weeks after the end of selection, to allow for the silencing of the telomeric locus. Transient transfections were performed by co-transfection of a Gal-fusion encoding plasmid and a BFP encoding plasmid at a molar ratio of 9:1. Cytofluorometric assays of the fluorescent reporter proteins were performed 48 h later. Stable populations expressing Gal-DBD/Gal-Pro were obtained by co-transfecting the Gal-fusion expression plasmid, a BFP-encoding plasmid, and a Zeocin resistance plasmid at 45:45:10 weight ratio. Zeocin resistant cells displaying high BFP levels were sorted twice, and the amount of zeocin was increased to 1800 μg/mL with increments of 200 μg/mL, to ensure consistent and elevated levels of fusion protein expression. Fluorescence in situ hybridization (FISH) was performed as described previously (12, 15) using two colors labeling of the reporter plasmids and of the telomeric repeats.
In order to analyze both telomere-insulated and non-insulated genes co-integrated at the same telomeric locus, we generated the reporter plasmids shown in FIG. 17A. Reporter vectors consist of the green fluorescent protein (GFP) and red fluorescent protein (DsRed) coding sequences placed on either side of four DNA binding sites for the yeast GAL4 protein. Each reporter gene was placed under the control of a minimal CMV promoter, in an orientation mediating either convergent or divergent directions of transcription. An antibiotic resistance gene was placed adjacent to DsRed, while telomeric (TTAGGG)n repeats were placed next to the GFP expression cassette. […] These constructs were transfected, and antibiotic-resistant cells having stably integrated the transgenes in their genome were selected and sorted into monoclonal populations. […] Fluorescence in situ hybridization (FISH) analysis indicated a telomeric or subtelomeric transgene position for all retained clones (see FIG. 6 in the supplemental material). […]

The subject of series [2] is histones H3, H4, H2A.Z on GFP and DsRed sequences in HeLa clones. Put plainly: Chromatin immunoprecipitation of histone modifications on telomeric transgenes. To be noted: clone B09. The method, then: Antibodies against acetylated H3 (06-599), acetylated H4 (06-866) and trimethylated H3K9 (07-442) were obtained from Upstate biotechnology. Antibody against H2A.Z (ab4174) was purchased from Abcam. HeLa cells were harvested at a confluence of 90% and cross-linked with 1% formaldehyde for 4 min. After lysis of the nuclei, chromatin was sonicated to obtain fragments of ˜1000 pb and digested with BamHI. The chromatin solution was diluted to a volume of 300 μL in a buffer containing 200 mM HEPES, 2M NaCl, 20 mM EDTA, 0.1% NaDoc, 1% Triton X-100, 1 mg/mL BSA. Chromatin fragments were precleared 30 min with 10 μL rProtein A Sepharose (Amersham Biosciences) and supernatants were incubated at 4° C. overnight with 5 μL of antibody. Immunoprecipitated complexes were incubated with 10 μL rProtein A Sepharose and pellets were washed 3 times with IP buffer (20 mM HEPES, 0.2M NaCl, 2 mM EDTA, 0.1% NaDoc, 1% Triton X-100). Immunoprecipitated complexes were eluted in 100 mM Tris/HCl, 1% SDS and cross-links were reversed at 65° C. for 1 hour. Precipitated DNAs were eluted in 50 μL TE.
Quantitative PCR was performed on 7700 Sequence detector (Applied Biosystems) using SYBR Green reagent (Eurogentec). Chromatin immuno-precipitation samples and chromatin input were diluted 10 fold before analysis. […]

In series [3] the test system is Fr-MuLV LTR enhancer acting on GFP gene in HeLa cells. Description: Quantitative double-reporter (BFP/GFP) enhancer-blocking assay, transient transfection. To be noted: HeLa transient, 48 hours, GFP/BFP ratio, compared to full-length cHS4. The text has this:
Panel A is a schematic illustration of the retroviral-mediated integration of a transgene expression cassette into a host cell genome upon viral infection. This cassette contains a transgene under the control of a retroviral LTR and is flanked by a genetic insulator element shielding a cellular gene at the site of integration from LTR-mediated up-regulation. In order to mimic events leading to gene transfer-mediated insertional activation in a plasmid-based assay system (B), plasmid constructs were designed containing a BFP gene under the control of a viral LTR enhancer-promoter and a GFP gene under the control of a minimal CMV promoter (P). Inserting a potent insulator in between the two reporter genes should prevent the expression over-activation of the GFP gene without affecting the BFP expression, as it should shield cellular gene from up-regulation at the site of integration of a viral vector without interfering with transgene expression. In addition, in order to insulate the whole construct itself either from the viral enhancer bi-directional activation in transient transfection (circular form of the plasmid) or from a neighboring cellular enhancer at the site of integration in stable transfection (integrated linearized form of the plasmid), a copy of the cHS4 insulator is inserted at the edge of the reporter gene expression cassettes
The plasmid constructs described in FIG. 26B were obtained as follows. The EGFP gene expressed from a minimal CMV promoter was PCR amplified from a pcDNA3-EGFP plasmid excluding the CMV enhancer. The EBFP gene was PCR amplified from the pEBFP-NI plasmid (Clontech). Both reporters were subcloned in a pBS2-SKP (Stratagene). The Fr-MuLV LTR was inserted upstream from the EBFP gene such that transcription from the LTR is directed towards EBFP, and a copy of the 1.2 kb cHS4 was inserted downstream from the EGFP gene. Insulator sequences were inserted between the Fr-MuLV LTR and the minimal CMV promoter driving GFP expression. The 250 bp cHS4 core was PCR amplified from the full-length cHS4 (GenBank accession number: U78775.2, amplification from position 1 to 250). A series of neutral DNA spacers of various lengths were PCR amplified from the mouse utrophin cDNA (GenBank accession number: BC062163.1, amplifications form position 355 to positions 605 and 1555).
HeLa cells were transfected using FuGENE 6 reagent (Roche Diagnostics) according to the manufacturer's recommendations. Equimolar amounts of the different plasmids were transfected in each experiment (using the pBS2-SKP backbone plasmid as carrier). Circular plasmids were used for transient transfections, while plasmids were linearized before stable transfections. To obtain stable populations, the reporter constructs were co-transfected with a puromycin resistance-encoding plasmid (pPUR, Clontech) with a molar ratio of 10:1 and cells were grown in Dulbecco's modified Eagle medium containing 10% fetal bovine serum and 0.5 μg/mL puromycin (all from GIBCO). Fluorescence analyses were acquired on the FACS Cyan (Dakocytomation) with the settings of 450 V on the SSC channel, 340 V for the GFP and 450 V for the BFP. Data analysis of the double-reporter assay consisted in normalizing the GFP fluorescence to the BFP fluorescence for each cell and averaging these values over the total cell population. FACS analyses were performed 48 hours after transfection for transient expression and after 2 to 3 weeks of selection post-transfection for stable expression. Data processing was performed using the FlowJo software.
Therefore, we designed a two-reporter gene assay whereby the potency of enhancer-blocker insulators can be quantified, and in which polar insulating activities can be distinguished from enhancer inhibition or from global gene silencing effects. […]

“Also recorded” adds a separate entry of the source.

In the case of `Nc1ncn([C@H]2C[C@H](O)[C@@H](CO)O2)c(=O)n1` [5azadC, 5-aza-2′-deoxycytidine], the “transgene expression at telomeric positions” value (shortened to “transgene expression”) in series [1] was “little effect on transgene expression”. As to `O=c1[nH]c(=O)n([C@H]2C[C@H](O)[C@@H](CO)O2)cc1Br` [BrdU, Bromo-deoxyuridine], in series [1], the “transgene expression” value was “increase in expression of the reporter genes, but to a lesser extent than that noted with TSA”.

For `CCCC(=O)[O-].[Na+]` [NaB, Sodium butyrate], in series [1], the “transgene expression” value is “lower unsilencing effects in some clones”. Also, in series [1] (clone D17), the telomeric gene expression entry is given as “little effect on telomeric gene expression”. In the case of `CC(/C=C/C(=O)NO)=C\[C@@H](C)C(=O)c1ccc(N(C)C)cc1` [TSA, Trichostatin A], the “transgene expression” value in series [1] was “strongly increase transgene expression”. For the same molecule, in series [2], the “H3K9Me3 on DsRed and GFP sequences (ChIP)” value is recorded as “increase”; the “H3 and H4 acetylation on DsRed and GFP sequences (ChIP)” value is “increase of the acetylation of both DsRed and GFP”. With “CTF1: native transcription factor of the CTF/NF1 family, transiently expressed”, the “reporter gene activation upon transient CTF1 expression” value in series [1] (reporter with seven CTF/NF1 binding sites, internal chromosomal location) is “commensurate activation occurred for both reporter genes”. Further, in series [1] (reporter with seven CTF/NF1 binding sites, telomeric transgenes), the “boundary effect upon transient CTF1 expression” value is listed as “boundary effect was observed”. In the case of “One binding site (20 bp element): single CTF/NF1 binding site from adenovirus type II origin of replication, 20 bp (DNA TTGGCAACGTGCCATAAGCA; listed as DNA, chemistry not given here)”, the “enhancer-blocking (insulator) activity” value in series [3] was “responsible for most of the effect”; in series [3] (listed as single binding site of 20 bp), “approximately half of the insulating effect seen with the full-length cHS4”.

B1: 12×CTCF: 12 copies of consensus CTCF binding sites with random spacers, 472 bp (nucleic acid)
DNA: GCGATGCCGCCCCCTGGTGGCCAGTAATCGCAAGGCTAAGTAATCACTGCCCCCTGGTGGCCGCCAGTCTGATACGCGTTTTACAACCGCCCCCTGGTGGCCGTGGGAGACATCTAGTGCACGAGAGTGCCCCCTGGTGGCCAAACCGTAGCCTAGGCATATTGTACTGCCCCCTGGTGGCCGGCAATATGGCTAGCGATGACTCGGCGCCCCCTGGTGGCCACTACGTTCTAGTGGCGATGCCGCCCCCTGGTGGCCAGTAATCGCAAGGCTAAGTAATCACTGCCCCCTGGTGGCCGCCAGTCTGATACGCGTTTTACAACCGCCCCCTGGTGGCCGTGGGAGACATCTAGTGCACGAGAGTGCCCCCTGGTGGCCAAACCGTAGCCTAGGCATATTGTACTGCCCCCTGGTGGCCGGCAATATGGCTAGCGATGACTCGGCGCCCCCTGGTGGCCACTACGTTCTAGTG
modifications: Consensus binding sites for CTCF (12copies)
Consider B1, for which, in series [3], the “enhancer-blocking (insulator) activity” value is reported as “as potent as the complete 1.2 kb cHS4 element; also recorded: comparable to the one of the full length cHS4; also recorded: fully reproduced the insulation effect; also recorded: able to reconstitute the enhancer blocking activity mediated by the full-length 1.2 kb cHS4”.

B2: CTCF cons: 6 repeats of the consensus CTCF binding site separated by random linkers (nucleic acid)
DNA: GCGATGCCGCCCCCTGGTGGCCAGTAATCGCAAGGCTAAGTAATCACTGCCCCCTGGTGGCCGCCAGTCTGATACGCGTTTTACAACCGCCCCCTGGTGGCCGTGGGAGACATCTAGTGCACGAGAGTGCCCCCTGGTGGCCAAACCGTAGCCTAGGCATATTGTACTGCCCCCTGGTGGCCGGCAATATGGCTAGCGATGACTCGGCGCCCCCTGGTGGCCACTACGTTCTAGTG
modifications: CTCF consensus binding sites
As for B2, the “enhancer-blocking (insulator) activity” value in series [3] is “already showed significant activity”; in series [3] (listed as Consensus binding sites for CTCF), “able to show the same activity, with no significant improvement”.

The record behind these values is patent US20110294873A1, “Gene Transfer Vectors Comprising At Least One Isolated DNA Molecule Having Insulator Or Boundary Properties And Methods To Identify The Same” (UNIVERSITÉ DE LAUSANNE, priority 2008, published 2011).
